The text below walks through data of patent publication US6426331B1, “Inhibitors of STAT function” (Tularik Inc., priority 1998, dated 2002).

One assay addresses T1, STAT6 (Homo sapiens, UniProt P42226).
T1 sequence (P42226 1-847): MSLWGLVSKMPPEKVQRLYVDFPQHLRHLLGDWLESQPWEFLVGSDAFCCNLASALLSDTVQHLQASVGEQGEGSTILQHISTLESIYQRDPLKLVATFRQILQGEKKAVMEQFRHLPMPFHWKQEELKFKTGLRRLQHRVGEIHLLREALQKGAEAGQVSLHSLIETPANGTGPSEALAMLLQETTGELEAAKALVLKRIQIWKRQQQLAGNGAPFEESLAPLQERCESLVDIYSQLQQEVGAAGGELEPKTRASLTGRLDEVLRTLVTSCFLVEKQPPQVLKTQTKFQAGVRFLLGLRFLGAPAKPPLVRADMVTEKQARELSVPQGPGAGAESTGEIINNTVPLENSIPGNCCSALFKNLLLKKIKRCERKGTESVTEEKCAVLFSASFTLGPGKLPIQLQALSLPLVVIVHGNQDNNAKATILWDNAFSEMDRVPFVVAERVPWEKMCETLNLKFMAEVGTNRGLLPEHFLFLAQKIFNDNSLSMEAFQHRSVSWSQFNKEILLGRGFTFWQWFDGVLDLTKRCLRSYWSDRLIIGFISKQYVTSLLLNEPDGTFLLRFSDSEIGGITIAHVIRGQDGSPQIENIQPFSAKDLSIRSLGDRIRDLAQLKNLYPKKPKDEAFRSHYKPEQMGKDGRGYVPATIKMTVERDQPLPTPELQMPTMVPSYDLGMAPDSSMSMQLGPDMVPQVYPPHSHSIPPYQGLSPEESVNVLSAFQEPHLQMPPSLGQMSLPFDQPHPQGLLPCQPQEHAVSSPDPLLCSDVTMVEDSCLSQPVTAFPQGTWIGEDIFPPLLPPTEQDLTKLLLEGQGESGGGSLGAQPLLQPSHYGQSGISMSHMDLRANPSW
As to the kind of experiment: Inhibition of STAT6 binding (duplex formation). The following applies: Table 1; inhibitors of STAT6 binding (duplex formation). The procedure:
The compounds of the present invention can be evaluated for STAT binding activity using methods such as those described in U.S. Pat. No. 6,207,391 (for STAT6 binding). Other assays for STAT binding can be found in, for example, U.S. Pat. Nos. 5,618,693, 5,639,858 and 5,756,700.
Using methods similar to those described in Examples 1 and 2, the compounds provided in Table 1 were prepared and evaluated as inhibitors of STAT6 binding (duplex formation). The assay is described in U.S. Pat. No. 6,207,391, filed Mar. 31, 1998. In each of the tables below: a + symbol indicates and IC50 of >100 μM; a ++ symbol indicates and IC50 of 50-100 μM; a +++ symbol indicates and IC50 of 1-50 μM; and a ++++ symbol indicates and IC50 of <1.0 μM.
For the molecule `CC(C)(C)[C@H](NC(=O)/C=C/c1ccc(C(O)C(=O)O)cc1)C(=O)N1C[C@H](NC(=O)c2ccccc2)C[C@H]1C(=O)N(Cc1ccccc1)c1ccc(C(N)=O)cc1` (stereo partly shown) [drawing 46: H, —NHBz, 4-CONH2, H], the IC50 was 1 to 50 µM.
On the same count and under the same terms, then `Cc1ccc(S(=O)(=O)N[C@@H]2C[C@@H](C(=O)N(Cc3ccccc3)c3ccc(C(N)=O)cc3)N(C(=O)[C@@H](NC(=O)/C=C/c3ccc(C(O)C(=O)O)cc3)C(C)(C)C)C2)cc1` (stereo partly shown) [drawing 46: H, —NH-Tosyl, 4-CONH2, H], with greater than 100 µM; and `CN(C)[C@@H]1C[C@@H](C(=O)N(Cc2ccccc2)c2ccc(C(N)=O)cc2)N(C(=O)[C@@H](NC(=O)/C=C/c2ccc(C(O)C(=O)O)cc2)C(C)(C)C)C1` (stereo partly shown) [drawing 46: H, —N(CH3)2,4-CONH2, H], with 50 to 100 µM; and `CC(C)C(=O)N[C@@H]1C[C@@H](C(=O)N(Cc2ccccc2)c2ccc(C(N)=O)cc2)N(C(=O)[C@@H](NC(=O)/C=C/c2ccc(C(O)C(=O)O)cc2)C(C)(C)C)C1` (stereo partly shown) [drawing 46: H, —NHCOCH(CH3)2, 4-CONH2, H], with 1 to 50 µM.
On the same count and under the same terms, next, `CC(=O)N[C@@H]1C[C@@H](C(=O)N(Cc2ccccc2)c2ccc(C(N)=O)cc2)N(C(=O)[C@@H](NC(=O)/C=C/c2ccc(C(O)C(=O)O)cc2)C(C)(C)C)C1` (stereo partly shown) [drawing 46: H, —NHAc, 4-CONH2, H]: 1 to 50 µM.
The molecule `CC(C)(C)[C@H](NC(=O)/C=C/c1ccc(C(O)C(=O)O)cc1)C(=O)N1C[C@H](N)C[C@H]1C(=O)N(Cc1ccccc1)c1ccc(C(N)=O)cc1` (stereo partly shown) [drawing 46: H, —NH2,4-CONH2, H] registered an IC50 of 1 to 50 µM.

Still in this assay, the particulars now being: Table 2; STAT6 binding.
`CC(C)(C)[C@H](NC(=O)/C=C/c1ccc(C(=O)O)cc1)C(=O)N1CCC[C@H]1C(=O)N(c1ccccc1)c1ccc(C(N)=O)cc1` showed an IC50 greater than 100 µM.
`COc1cc(/C=C/C(=O)N[C@H](C(=O)N2CCC[C@H]2C(=O)N(c2ccccc2)c2ccc(C(N)=O)cc2)C(C)(C)C)ccc1P(=O)(O)O` yielded an IC50 of 1 to 50 µM.
The same measure, in the same setting: then `CC(C)(C)[C@H](NC(=O)/C=C/c1ccc(OCC(=O)O)cc1)C(=O)N1CCC[C@H]1C(=O)N(c1ccccc1)c1ccc(C(N)=O)cc1`, with greater than 100 µM.
On the same count and under the same terms, then `CC(C)(C)[C@H](NC(=O)/C=C/c1ccc(CC(=O)O)cc1)C(=O)N1CCC[C@H]1C(=O)N(c1ccccc1)c1ccc(C(N)=O)cc1`, with greater than 100 µM.
Take `CC(C)(C)[C@H](NC(=O)/C=C/c1ccc(C(=O)O)cn1)C(=O)N1CCC[C@H]1C(=O)N(c1ccccc1)c1ccc(C(N)=O)cc1`: the IC50 was greater than 100 µM.

Staying with this assay, now noted: Table 3; STAT6 binding.
In the case of `Cc1ccc(N(C(=O)C2CCCN2C(=O)C(NC(=O)C=Cc2ccc(OP(=O)(O)O)cc2)C(C)(C)C)c2ccccc2)cc1` (stereo not shown) [drawing 69: CH3], the IC50 is less than 1 µM.
Still for that read-out and setting: then `CC(C)(C)C(NC(=O)C=Cc1ccc(OP(=O)(O)O)cc1)C(=O)N1CCCC1C(=O)N(c1ccccc1)c1ccc(I)cc1` (stereo not shown) [drawing 69: I], with less than 1 µM.
Same read-out and setting: then `COc1ccc(N(C(=O)C2CCCN2C(=O)C(NC(=O)C=Cc2ccc(OP(=O)(O)O)cc2)C(C)(C)C)c2ccccc2)cc1` (stereo not shown) [drawing 69: OCH3], with less than 1 µM.

Staying with this assay, now noted: Table 4; STAT6 binding.
`CC(C)(C)C(NC(=O)C=Cc1ccc(OP(=O)(O)O)cc1)C(=O)N1CCCC1C(=O)N(Cc1ccc(I)cc1)c1ccccc1` (stereo not shown) [drawing 70: H, 4-I] registered an IC50 of less than 1 µM.
Molecule `CC(=O)NCc1ccc(N(Cc2ccc(C(N)=O)cc2)C(=O)C2CCCN2C(=O)C(NC(=O)C=Cc2ccc(OP(=O)(O)O)cc2)C(C)(C)C)cc1` (stereo not shown) [drawing 70: 4-CH2NHAc, 4-CONH2] registered an IC50 of less than 1 µM.

The assay is the same for the next values; noted with them: Table 5; STAT6 binding.
Molecule `CC(=O)NCc1cccc(CN(Cc2cccc(C(N)=O)c2)C(=O)C2CCCN2C(=O)C(NC(=O)C=Cc2ccc(OP(=O)(O)O)cc2)C(C)(C)C)c1` (stereo not shown) [drawing 71: 3-CONH2,3-CH2NHAc] displayed an IC50 of 1 to 50 µM.
The same measure, in the same setting: next, `CC(=O)NCc1ccc(CN(Cc2ccc(C(N)=O)cc2)C(=O)C2CCCN2C(=O)C(NC(=O)C=Cc2ccc(OP(=O)(O)O)cc2)C(C)(C)C)cc1` (stereo not shown) [drawing 71: 4-CONH2,4-CH2NHAc]: less than 1 µM; `CC(C)(C)C(NC(=O)C=Cc1ccc(OP(=O)(O)O)cc1)C(=O)N1CCCC1C(=O)N(Cc1ccccc1)Cc1ccc(C(N)=O)cc1` (stereo not shown) [drawing 71: 4-CONH2, H]: less than 1 µM.

As a reminder, the IC50 is the concentration at which inhibition is half-maximal. A lower IC50 goes with inhibition by little substance.
